The record followed here is ChEMBL document CHEMBL1269003, “Design and synthesis of tetrahydropyridothieno[2,3-d]pyrimidine scaffold based epidermal growth factor receptor (EGFR) kinase inhibitors: the role of side chain chirality and Michael acceptor group for maximal potency” (J Med Chem, 2010).

Activity calls are given as the source filed them. The rule behind the calls is not given here.

Series [1] concerns the target T1, Epidermal growth factor receptor (Homo sapiens, UniProt P00533).
Series [2] relates to Epidermal growth factor receptor (Homo sapiens), P00533 [L858R,T790M]. As to conditions: 10 uM.
Sequence of Epidermal growth factor receptor (Homo sapiens), P00533 [L858R,T790M] (P00533 whole entry T790M/L858R, looked up): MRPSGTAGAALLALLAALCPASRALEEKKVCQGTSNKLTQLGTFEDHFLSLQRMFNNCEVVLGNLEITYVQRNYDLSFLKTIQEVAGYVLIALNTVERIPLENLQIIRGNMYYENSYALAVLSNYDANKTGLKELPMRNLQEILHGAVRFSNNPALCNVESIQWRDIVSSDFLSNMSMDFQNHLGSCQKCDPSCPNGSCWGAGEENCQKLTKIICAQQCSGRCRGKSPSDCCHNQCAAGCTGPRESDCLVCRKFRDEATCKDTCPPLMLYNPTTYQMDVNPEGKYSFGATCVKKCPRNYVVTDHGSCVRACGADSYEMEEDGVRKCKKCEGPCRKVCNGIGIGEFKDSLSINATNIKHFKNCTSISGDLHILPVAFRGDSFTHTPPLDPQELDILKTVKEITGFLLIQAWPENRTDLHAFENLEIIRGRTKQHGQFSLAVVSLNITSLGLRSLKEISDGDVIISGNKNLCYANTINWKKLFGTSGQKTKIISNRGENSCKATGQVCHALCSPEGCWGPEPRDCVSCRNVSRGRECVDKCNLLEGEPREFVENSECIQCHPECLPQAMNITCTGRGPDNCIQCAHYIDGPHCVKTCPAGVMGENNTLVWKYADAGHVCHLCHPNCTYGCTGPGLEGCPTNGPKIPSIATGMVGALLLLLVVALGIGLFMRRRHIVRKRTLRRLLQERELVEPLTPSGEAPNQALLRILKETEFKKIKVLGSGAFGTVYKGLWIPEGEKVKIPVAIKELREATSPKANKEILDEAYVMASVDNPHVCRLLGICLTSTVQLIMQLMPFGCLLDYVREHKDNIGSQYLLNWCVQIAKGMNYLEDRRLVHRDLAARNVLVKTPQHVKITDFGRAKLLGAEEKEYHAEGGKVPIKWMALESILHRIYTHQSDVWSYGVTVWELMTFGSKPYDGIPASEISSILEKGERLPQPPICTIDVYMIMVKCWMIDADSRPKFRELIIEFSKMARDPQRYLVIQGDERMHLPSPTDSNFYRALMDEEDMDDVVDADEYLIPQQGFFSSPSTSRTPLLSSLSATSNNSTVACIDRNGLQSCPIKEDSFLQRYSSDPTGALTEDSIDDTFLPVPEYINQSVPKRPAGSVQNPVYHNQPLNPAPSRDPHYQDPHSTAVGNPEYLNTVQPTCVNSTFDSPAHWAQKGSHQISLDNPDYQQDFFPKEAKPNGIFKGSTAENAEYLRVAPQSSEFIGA
A short description of series [3]: Antiproliferative activity against human HCC827 cells by MTS assay. In general terms: Formazan colour is commonly taken as a measure of viable cells.
Series [4] addresses Epidermal growth factor receptor (Homo sapiens, UniProt P00533, L858R/T790M).
For series [5], the target named is T1, Epidermal growth factor receptor. Put plainly: Inhibition of EGFR at 20 uM.
Series [6] has the same target. As to conditions: 20 uM.
Series [7] can be described thus: AUC (0 to infinity) in Sprague-Dawley rat at 5 mg/kg, iv. Particulars: plasma. Format: ADME, organism-based. More on the design: time infinity, dose 5 mg/kg, route intravenous.
Another series has as its system Rattus norvegicus. Description: Half life in Sprague-Dawley rat at 5 mg/kg, iv. Particulars: in vivo. The format is ADME, organism-based. More on the design: dose 5 mg/kg, route intravenous.
In series [8] the test system is HCC827. Description: Antitumor activity against human HCC827 cells xenografted in mouse assessed as reduction of tumor growth at 5 to 15 mg/kg, iv for 5 days a week measured after 2 weeks. The format is functional, organism-based.
The test system of series [9] is HCC827. Description: Antitumor activity against human HCC827 cells xenografted in mouse assessed as reduction of tumor growth at 100 mg/kg, iv for 5 days a week measured after 2 weeks. More on the design: dose 100 mg/kg. The format is functional, organism-based. For orientation: In xenograft studies the graft and the host belong to different species.

T1 sequence (P00533 whole entry): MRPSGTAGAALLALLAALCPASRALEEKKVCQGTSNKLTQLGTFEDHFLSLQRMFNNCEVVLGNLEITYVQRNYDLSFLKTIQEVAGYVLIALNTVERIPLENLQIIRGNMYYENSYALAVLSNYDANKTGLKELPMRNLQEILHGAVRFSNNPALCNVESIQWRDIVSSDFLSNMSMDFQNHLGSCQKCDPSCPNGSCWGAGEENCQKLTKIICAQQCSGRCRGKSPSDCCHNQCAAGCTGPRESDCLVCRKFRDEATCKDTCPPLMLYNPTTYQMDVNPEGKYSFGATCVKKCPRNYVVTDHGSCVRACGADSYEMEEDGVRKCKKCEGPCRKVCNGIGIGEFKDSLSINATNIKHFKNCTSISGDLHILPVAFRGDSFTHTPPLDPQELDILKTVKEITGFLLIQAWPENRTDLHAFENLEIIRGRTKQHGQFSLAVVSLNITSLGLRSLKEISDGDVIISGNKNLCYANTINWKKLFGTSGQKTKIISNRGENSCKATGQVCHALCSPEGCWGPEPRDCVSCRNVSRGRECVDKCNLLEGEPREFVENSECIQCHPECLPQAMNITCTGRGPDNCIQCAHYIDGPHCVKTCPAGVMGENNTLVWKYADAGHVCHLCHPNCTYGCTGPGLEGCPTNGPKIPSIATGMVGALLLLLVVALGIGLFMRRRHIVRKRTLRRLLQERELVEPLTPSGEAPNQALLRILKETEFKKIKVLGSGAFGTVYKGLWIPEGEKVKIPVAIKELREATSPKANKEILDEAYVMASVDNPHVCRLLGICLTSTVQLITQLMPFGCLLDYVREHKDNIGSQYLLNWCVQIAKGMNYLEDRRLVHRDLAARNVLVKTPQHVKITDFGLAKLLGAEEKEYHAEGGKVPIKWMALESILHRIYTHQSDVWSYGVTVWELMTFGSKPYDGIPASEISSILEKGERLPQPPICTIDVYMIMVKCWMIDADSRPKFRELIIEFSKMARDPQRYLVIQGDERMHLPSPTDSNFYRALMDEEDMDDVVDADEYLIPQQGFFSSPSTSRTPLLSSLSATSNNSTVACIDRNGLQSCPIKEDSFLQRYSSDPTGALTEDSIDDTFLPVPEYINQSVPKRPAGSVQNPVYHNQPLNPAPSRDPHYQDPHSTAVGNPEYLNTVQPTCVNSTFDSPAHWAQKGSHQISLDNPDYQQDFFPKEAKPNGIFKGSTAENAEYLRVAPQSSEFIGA
Sequence of Epidermal growth factor receptor (Homo sapiens, UniProt P00533, L858R/T790M) (P00533 25-1210 T790M/L858R limits assumed): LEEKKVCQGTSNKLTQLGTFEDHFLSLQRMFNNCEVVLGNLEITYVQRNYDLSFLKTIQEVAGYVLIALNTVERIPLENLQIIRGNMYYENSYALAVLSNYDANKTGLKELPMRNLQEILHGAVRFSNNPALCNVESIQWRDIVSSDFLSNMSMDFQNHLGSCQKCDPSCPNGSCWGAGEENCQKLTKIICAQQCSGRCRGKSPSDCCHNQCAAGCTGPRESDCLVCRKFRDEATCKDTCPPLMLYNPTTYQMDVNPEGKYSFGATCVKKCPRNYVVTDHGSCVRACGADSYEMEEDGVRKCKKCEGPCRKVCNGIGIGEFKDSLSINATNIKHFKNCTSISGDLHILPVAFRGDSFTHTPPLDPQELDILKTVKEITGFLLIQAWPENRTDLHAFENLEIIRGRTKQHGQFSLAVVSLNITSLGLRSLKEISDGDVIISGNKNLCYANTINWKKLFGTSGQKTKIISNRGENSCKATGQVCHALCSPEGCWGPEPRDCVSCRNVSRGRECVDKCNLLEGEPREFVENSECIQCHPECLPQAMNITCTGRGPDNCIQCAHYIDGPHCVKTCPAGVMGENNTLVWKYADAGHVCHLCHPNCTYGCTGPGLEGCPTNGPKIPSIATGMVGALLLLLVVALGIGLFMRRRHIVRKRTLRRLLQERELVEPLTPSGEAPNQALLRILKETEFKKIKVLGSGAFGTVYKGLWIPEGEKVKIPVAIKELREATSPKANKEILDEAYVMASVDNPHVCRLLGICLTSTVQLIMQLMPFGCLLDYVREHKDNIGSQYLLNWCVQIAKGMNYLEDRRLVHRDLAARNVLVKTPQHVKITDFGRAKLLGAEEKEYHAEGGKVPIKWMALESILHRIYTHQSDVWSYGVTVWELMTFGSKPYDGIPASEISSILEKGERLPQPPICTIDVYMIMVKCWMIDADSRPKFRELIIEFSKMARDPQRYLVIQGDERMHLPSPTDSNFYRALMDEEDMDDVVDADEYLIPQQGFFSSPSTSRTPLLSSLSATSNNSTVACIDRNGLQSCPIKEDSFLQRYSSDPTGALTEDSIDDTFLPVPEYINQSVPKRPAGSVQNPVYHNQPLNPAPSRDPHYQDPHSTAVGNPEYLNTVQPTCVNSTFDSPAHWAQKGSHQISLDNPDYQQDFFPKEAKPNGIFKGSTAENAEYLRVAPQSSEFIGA

Consider `O=C(/C=C/c1ccccc1)N1CCc2c(sc3ncnc(N[C@H](CO)c4ccccc4)c23)C1`, for which 3500 nM corresponded to half-maximal inhibition in series [1] (IC50). In addition, the inhibition (as a rule, the change of the read-out against control, counted positive when it falls) in series [2] is below 50%.
As for `OC[C@@H](Nc1ncnc2sc3c(c12)CCC3)c1ccccc1`, the values for the IC50 in series [1] and in series [3] were 1090 nM and 324 nM, respectively.
In the case of `CN(C)C/C=C/C(=O)N1CCc2c(sc3ncnc(NC(CO)Cc4ccccc4)c23)C1` (single isomer, unassigned), the IC50 (commonly the concentration that inhibits the measured activity by half) is 149 nM in series [1], 32 nM in series [3] and 4110 nM in series [4].
For `OC[C@H](Nc1ncnc2sc3c(c12)CCCC3)c1ccccc1`, the IC50 in series [5] was above 20000 nM.
For the compound `C=CC(=O)N1CCc2c(sc3ncnc(N[C@H](CC)c4ccccc4)c23)C1`, the IC50 was 46 nM in series [1], 24 nM in series [3] and 2200 nM in series [4].
For `C=CC(=O)N1CCc2c(sc3ncnc(N[C@H](C)c4ccccc4)c23)C1`, the results for the IC50 in series [1], in series [3] and in [4] were 20 nM, 19 nM and 739 nM, respectively.
On to `C=CS(=O)(=O)N1CCc2c(sc3ncnc(N[C@H](CO)c4ccccc4)c23)C1`, for which the values for the IC50 in [1], in series [3] and in series [4] were 91 nM, 273 nM and 2480 nM, respectively.
Compound `OC[C@@H](Nc1ncnc2sc3c(c12)CCNC3)c1ccccc1` yielded an inhibition in series [2] below 50%. Also, the IC50 in series [5] is above 20000 nM.
Regarding `OC[C@@H](Nc1ncnc2sc3c(c12)CCCC3)c1ccccc1`, the IC50 in series [1] was determined as 720 nM; in [3], 198 nM. The same compound came in with an inhibition in series [2] below 50%.
With `CCN(CC)C/C=C/C(=O)N1CCc2c(sc3ncnc(NC(CO)c4ccccc4)c23)C1` (single isomer, unassigned), the IC50 stood at 9 nM in series [1], 8 nM in [3] and 930 nM in [4].
In the same order, the values of `O=C(/C=C/CN1CCOCC1)N1CCc2c(sc3ncnc(NC(CO)c4ccccc4)c23)C1` (single isomer, unassigned) are 21 nM, 4 nM and 1400 nM.
Take `c1ccc(CNc2ncnc3sc4c(c23)CCCC4)cc1`: the inhibition is 76.9% in series [6] and below 50% in series [2]. In series [3], this compound displayed an IC50 above 10000 nM.
For `C[C@@H](Nc1ncnc2sc3c(c12)CCN(C(=O)/C=C/CN(C)C)C3)c1ccccc1`, the IC50 in series [1] was 12 nM; in series [3] it was 2 nM; in series [4], 596 nM.
`COc1ccc(CNc2ncnc3sc4c(c23)CCCC4)cc1` gave an inhibition in series [6] of 1.1%.
`CCC(=O)N1CCc2c(sc3ncnc(N[C@H](CO)c4ccccc4)c23)C1`: the inhibition in [2] was below 50%. The same compound came in with a half-maximal inhibitory concentration (IC50) in [5] above 20000 nM.
Take `CN(C)C/C=C/C(=O)N1CCc2c(sc3ncnc(N[C@H](CO)c4ccccc4)c23)C1`: the half-maximal inhibitory concentration (IC50) is 70 nM in [1], 2 nM in [3] and 305 nM in [4]. Also, in series [7], the AUC(0-inf) (commonly total exposure, with the tail of the curve extrapolated) was found to be 337 ng·h/mL. Further, the t1/2 in the series with Rattus norvegicus came out at 1.4 h. In the series with HCC827 [8], the result was Active.
`c1ccc(CNc2ncnc3sc4c(c23)CCC4)cc1` came in with an inhibition in series [6] of 69.1%.
In the case of `C=CC(=O)N1CCc2c(sc3ncnc(N[C@@H](CO)c4ccccc4)c23)C1`, inhibition in series [1] was half-maximal at 3060 nM (IC50). In series [2], this compound showed an inhibition below 50%.
For `OC[C@@H](Nc1ncnc2oc(-c3ccccc3)c(-c3ccccc3)c12)c1ccccc1`, the IC50 in [3] turned out to be 518 nM.
As to `CN1CCN(C/C=C/C(=O)N2CCc3c(sc4ncnc(N[C@H](CO)c5ccccc5)c34)C2)CC1`, the IC50 came to 89 nM in [1] and 38 nM in series [3]. The same compound showed an inhibition in series [2] below 50%.
As for `C[C@@H](Nc1ncnc2sc3c(c12)CCCC3)c1ccccc1`, the IC50 in [1] is above 3240 nM.
In series [1], `CN(C)C/C=C/C(=O)N1CCc2c(sc3ncnc(NCCO)c23)C1` displayed an IC50 of 4880 nM. Also, the inhibition in [2] is below 50%.
As for `C=CC(=O)N1CCc2c(sc3ncnc(N[C@H](CO)c4ccccc4)c23)C1`, the IC50 in series [1] amounted to 8 nM; in series [3] it was 3 nM; in [4] it was 100 nM.
In turn, `Fc1ccc(CNc2ncnc3sc4c(c23)CCCC4)cc1` returned an inhibition in series [6] of 52.7%.
Same read-out and setting: with `c1ccc(CCNc2ncnc3sc4c(c23)CCCC4)cc1` the figure was 44.3%.
In [2], `CN(C)C/C=C/C(=O)N1CCc2c(sc3ncnc(N[C@@H](CO)c4ccccc4)c23)C1` registered an inhibition below 50%. In series [5], this compound registered a concentration for half-maximal inhibition (IC50) above 20000 nM.
In the case of `CC#CC(=O)N1CCc2c(sc3ncnc(N[C@H](CO)c4ccccc4)c23)C1`, the IC50 in [1] is 1270 nM; in series [4] it was above 10000 nM. In addition, the inhibition in [2] is below 50%.
Turning to `OCCNc1ncnc2sc3c(c12)CCCC3`, the IC50 in series [5] was above 20000 nM.
For the compound `COc1cc2ncnc(Nc3ccc(F)c(Cl)c3)c2cc1OCCCN1CCOCC1`, the result in the series on HCC827 [9] was Active.
